Assays:
CDK9/CycT1 = molecular target: T1, CDK9/CycT1 (Homo sapiens, UniProt P50750); experiment: CDK9/CycT1 high ATP kinase assay (TR-FRET, 2 mM ATP); type: biochemical; settings: 2 mM ATP (high ATP); median; read-out: CDK9/CyclinT1, 2 mM ATP (high ATP), IC50 (median)
T1 construct: Recombinant full-length His-tagged human CDK9 and CycT1; purchased Life Technologies PV4131; host or cells: insect cells
How it was run: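 Full-length His-tagged human CDK9/CycT1 (insect cell, ~0.5 μg/mL) preincubated 15 min at 22 °C with compound in Tris pH 8.0, MgCl2, DTT buffer before reaction with biotinylated peptide substrate at high ATP (2 mM).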

[1] = tested on: BRCA1 mRNA expression in MDA-MB-231 cells; experiment: qRT-PCR assay: BRCA1 mRNA expression in MDA-MB-231; type: cell-based, human; settings: Homo sapiens, MDA-MB-231, Inhibition of BRCA1 mRNA expression in MDA-MB-231 cells; median; read-out: RTqPCR-MDA-MB-231, IC50, BRCA1 (median)
How it was run: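 Cells were seeded at 200,000 cells/well, left 24 h, then exposed continuously to test substances for 24 h. Total RNA (600 ng) was reverse-transcribed to cDNA and amplified by qPCR, and transcript levels were normalised to GAPDH housekeeping expression.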

CDK2/CycE = molecular target: T2, CDK2/CycE (Homo sapiens, UniProt P24941); experiment: CDK2/CycE kinase assay (TR-FRET, 2 mM ATP); type: biochemical; settings: 2 mM ATP (high ATP); median; read-out: CDK2/CyclinE, 2 mM ATP (high ATP), IC50 (median)
T2 construct: purchased ProQinase GmbH (Freiburg, Germany); host or cells: insect cells (Sf9)
How it was run: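 GST-tagged human CDK2 and CycE from Sf9 cells, about 10 ng/ml, pre-incubated 15 min at 22 °C with compound in Tris/HCl pH 8.0 buffer. Reaction with 2 mM ATP and 0.75 µM biotinylated peptide for 25 min at 22 °C. Phospho-RB antibody TR-FRET (665/620 nm ratio) read after 1 h; data normalised to no-inhibitor and no-enzyme controls.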

T1 sequence (P50750 whole entry): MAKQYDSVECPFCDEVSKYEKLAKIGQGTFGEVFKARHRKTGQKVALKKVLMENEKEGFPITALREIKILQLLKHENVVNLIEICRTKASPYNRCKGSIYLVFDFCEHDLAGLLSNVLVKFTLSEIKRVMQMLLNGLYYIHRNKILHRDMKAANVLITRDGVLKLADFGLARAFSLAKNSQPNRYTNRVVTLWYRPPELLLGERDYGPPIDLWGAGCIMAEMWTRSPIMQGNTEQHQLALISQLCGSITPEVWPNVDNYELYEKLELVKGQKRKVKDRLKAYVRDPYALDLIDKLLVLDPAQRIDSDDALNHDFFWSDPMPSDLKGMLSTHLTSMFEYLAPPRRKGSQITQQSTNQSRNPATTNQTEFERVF
T1 sequence (O60563 whole entry partner): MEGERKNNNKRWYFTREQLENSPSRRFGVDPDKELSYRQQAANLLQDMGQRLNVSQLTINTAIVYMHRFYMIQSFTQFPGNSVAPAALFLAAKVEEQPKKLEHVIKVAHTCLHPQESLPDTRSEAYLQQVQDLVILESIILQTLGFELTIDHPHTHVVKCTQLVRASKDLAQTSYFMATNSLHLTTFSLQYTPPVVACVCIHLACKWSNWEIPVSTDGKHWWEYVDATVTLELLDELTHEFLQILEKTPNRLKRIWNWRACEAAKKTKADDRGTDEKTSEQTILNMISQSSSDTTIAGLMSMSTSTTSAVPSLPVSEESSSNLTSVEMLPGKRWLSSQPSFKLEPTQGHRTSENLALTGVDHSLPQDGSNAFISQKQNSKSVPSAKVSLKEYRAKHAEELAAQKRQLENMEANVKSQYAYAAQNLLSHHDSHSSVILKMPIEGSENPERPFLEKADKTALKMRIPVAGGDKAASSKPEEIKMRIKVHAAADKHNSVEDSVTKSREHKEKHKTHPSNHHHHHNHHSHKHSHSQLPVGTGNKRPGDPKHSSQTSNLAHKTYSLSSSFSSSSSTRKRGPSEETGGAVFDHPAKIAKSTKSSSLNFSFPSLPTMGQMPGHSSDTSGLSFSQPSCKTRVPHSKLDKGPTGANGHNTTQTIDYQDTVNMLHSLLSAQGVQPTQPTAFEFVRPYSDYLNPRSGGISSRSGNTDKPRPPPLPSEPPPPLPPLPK

Compound | IC50 (CDK9/CycT1) [nM] | IC50 [1] [nM] | IC50 (CDK2/CycE) [nM]
OCC1COCCN1c1nc(NCc2nc3ccccc3[nH]2)n2ncc(Br)c2n1 (stereo not drawn) [Example 67, (4-{4-[(1H-benzimidazol-2-ylmethyl)amino]-8-bromopyrazolo[1,5-a][1,3,5]triazin-2-yl}morpholin-3-yl)methanol] | > 19400 | 24.8 | 1860
Fc1ccc2[nH]c(CNc3nc(N4CCOCC4)nc4c(-c5cnn(C(F)F)c5)cnn34)nc2c1F [Example 422, N-[(4,5-difluoro-1H-benzimidazol-2-yl)methyl]-8-[1-(difluoromethyl)-1H-pyrazol-4-yl]-2-(morpholin-4-yl)pyrazolo[1,5-a][1,3,5]triazin-4-amine] | > 20000 | 7.43 | > 20000
Brc1cnn2c(NCc3nnc(-c4ccccc4)[nH]3)nc(N3CC4(COC4)C3)nc12 [Example 65, 8-bromo-2-(2-oxa-6-azaspiro[3.3]heptan-6-yl)-N-[(5-phenyl-4H-1,2,4-triazol-3-yl)methyl]pyrazolo[1,5-a][1,3,5]triazin-4-amine] | > 5710 | 14.4 | > 20000
CN1CCN(c2nc(NCc3nc4cc(Cl)c(Cl)cc4[nH]3)n3ncc(C4CC4)c3n2)CC1 [Example 305, 8-cyclopropyl-N-[(5,6-dichloro-1H-benzimidazol-2-yl)methyl]-2-(4-methylpiperazin-1-yl)pyrazolo[1,5-a][1,3,5]triazin-4-amine] | > 20000 | 6.23 | > 20000
CN1CCN(c2nc(NCc3nc4cc(C(F)(F)F)ccc4[nH]3)n3ncc(C4CC4)c3n2)CC1 [Example 313, 8-cyclopropyl-2-(4-methylpiperazin-1-yl)-N-{[5-(trifluoromethyl)-1H-benzimidazol-2-yl]methyl}pyrazolo[1,5-a][1,3,5]triazin-4-amine] | > 20000 | 22.1 | > 20000
CC(C)c1cnn2c(NCc3nc4ccccc4[nH]3)nc(N3CCOC(C)(C)C3)nc12 [Example 12, N-[(1H-benzimidazol-2-yl)methyl]-2-(2,2-dimethylmorpholin-4-yl)-8-(propan-2-yl)pyrazolo[1,5-a][1,3,5]triazin-4-amine] | > 20000 | 117 | > 16500
OC[C@H]1CCCCN1c1nc(NCc2nnc(-c3ccccc3)[nH]2)n2ncc(Br)c2n1 [Example 71, [(2R)-1-(8-bromo-4-{[(5-phenyl-4H-1,2,4-triazol-3-yl)methyl]amino}pyrazolo[1,5-a][1,3,5]triazin-2-yl)piperidin-2-yl]methanol] | 1760 | 21.1 | 2230
CC1(C)CN(c2nc(NCc3nnc(-c4ccccc4)[nH]3)n3ncc(Br)c3n2)CCO1 [Example 68, 8-bromo-2-(2,2-dimethylmorpholin-4-yl)-N-[(5-phenyl-4H-1,2,4-triazol-3-yl)methyl]pyrazolo[1,5-a][1,3,5]triazin-4-amine] | 5340 | 43.4 | 10600
C[C@@H]1CN(c2nc(NCc3nc4ccccc4[nH]3)n3ncc(Br)c3n2)C[C@H](C)O1 [Example 73, N-[(1H-benzimidazol-2-yl)methyl]-8-bromo-2-[(2R,6S)-2,6-dimethylmorpholin-4-yl]pyrazolo[1,5-a][1,3,5]triazin-4-amine] | 9380 | 49.5 | 6090

The next lines start with the values.

IC50 (CDK9/CycT1) [nM] | IC50 [1] [nM] | IC50 (CDK2/CycE) [nM] | Compound
9350 | 13.7 | 1790 | Brc1cnn2c(NCc3ncc(-c4ccccn4)[nH]3)nc(N3CCOCC3)nc12 [Example 90, 8-bromo-2-(morpholin-4-yl)-N-{[5-(pyridin-2-yl)-1H-imidazol-2-yl]methyl}pyrazolo[1,5-a][1,3,5]triazin-4-amine]
6720 | 38.6 | 4350 | Clc1ccc(-c2cnc(CNc3nc(N4CCOCC4)nc4c(Br)cnn34)[nH]2)cc1 [Example 72, 8-bromo-N-{[5-(4-chlorophenyl)-1H-imidazol-2-yl]methyl}-2-(morpholin-4-yl)pyrazolo[1,5-a][1,3,5]triazin-4-amine]
3440 | 118 | 4840 | Brc1cnn2c(NCc3ncc(-c4cccnc4)[nH]3)nc(N3CCOCC3)nc12 [Example 84, 8-bromo-2-(morpholin-4-yl)-N-{[5-(pyridin-3-yl)-1H-imidazol-2-yl]methyl}pyrazolo[1,5-a][1,3,5]triazin-4-amine]
5270 | 17.1 | 1950 | Fc1ccccc1-c1cnc(CNc2nc(N3CCOCC3)nc3c(Br)cnn23)[nH]1 [Example 86, 8-bromo-N-{[5-(2-fluorophenyl)-1H-imidazol-2-yl]methyl}-2-(morpholin-4-yl)pyrazolo[1,5-a][1,3,5]triazin-4-amine]
> 20000 | 16.6 | 5270 | CC(C)c1cnn2c(NCc3nc4ccccc4[nH]3)nc(N3CCOCC3)nc12 [Example 1, N-[(1H-benzimidazol-2-yl)methyl]-2-(morpholin-4-yl)-8-(propan-2-yl)pyrazolo[1,5-a][1,3,5]triazin-4-amine]
4480 | 624 | 2300 | Fc1ccc(-c2cnc(CNc3nc(N4CCOCC4)nc4c(Br)cnn34)[nH]2)cc1 [Example 66, 8-bromo-N-{[5-(4-fluorophenyl)-1H-imidazol-2-yl]methyl}-2-(morpholin-4-yl)pyrazolo[1,5-a][1,3,5]triazin-4-amine]

Source: patent US20230117034A1, “PYRAZOLOTRIAZINES” (Bayer Aktiengesellschaft, priority 2019, published 2023)
